From ChEMBL document CHEMBL5150064 (J Med Chem, 2022) come the findings set out here.

Series [1] can be described thus: Apparent permeability across apical to basolateral side in MDCK cells at 10 uM measured upto 180 mins by LC-MS/MS method. In kind it is ADME, cell-based, Canis lupus familiaris. The conditions noted are these: dog.
Series [2] is described as follows: Lipophilicity, logD of compound in 1-Octanol/PBS at pH 7.4 by LC-MS/MS method. It is filed as physicochemical.
Series [3] in a line: Kinetic solubility of the compound at pH 7.4. In kind it is physicochemical. The conditions noted are these: buffer, read-out: Kinetic_solubility.
Series [4] is filed under the species Homo sapiens. Kind of series: Selectivity ratio of Ki for PI3Kdelta (unknown origin) to Ki for PI3Kalpha (unknown origin).
Series [5] has as its target Phosphatidylinositol 4,5-bisphosphate 3-kinase catalytic subunit alpha isoform (Homo sapiens, UniProt P42336). Description: Inhibition of PI3Kalpha (unknown origin) using PIP2:3PS as substrate in presence of ATP measured after 120 mins by ADP-Glo assay.
For series [6], the species on record is Homo sapiens. Description: Selectivity ratio of EC50 for PI3Kalpha H1047R mutant in human HCC1954 cells assessed as reduction in PRAS40 phosphorylation to EC50 for wild type PI3Kalpha in human HDQ-P1 cells assessed as reduction in PRAS40 phosphorylation. It is filed as cell-based.
Series [7] is described as follows: Oral bioavailability in Sprague-Dawley rat plasma at 5 mg/kg measured upto 8 hrs by LC-MS/MS method. It is filed as ADME, organism-based.
Series [8] can be described thus: Clearance in Sprague-Dawley rat plasma at 1 mg/kg, iv measured upto 8 hrs by LC-MS/MS analysis. It is filed as ADME, organism-based.
Series [9] deals with Phosphatidylinositol 4,5-bisphosphate 3-kinase catalytic subunit alpha isoform (Homo sapiens, UniProt P42336, H1047R).
In series [10] the test system is Phosphatidylinositol 4,5-bisphosphate 3-kinase catalytic subunit alpha isoform (Homo sapiens), P42336 [H1047R]. Description: Induction of P110alpha H1047R mutant degradation in human HCC1954 cells at 0.012 to 1 uM after 24 hrs. The conditions noted are these: dose 0.012-1 µM. In kind it is cell-based.

Values after ≈ are worked out from the molar mass of the structure shown. Active and inactive are the calls of the source. No cut-off for these calls is given here.

Chain of Phosphatidylinositol 4,5-bisphosphate 3-kinase catalytic subunit alpha isoform (Homo sapiens, UniProt P42336, H1047R) (P42336 whole entry H1047R, canonical isoform): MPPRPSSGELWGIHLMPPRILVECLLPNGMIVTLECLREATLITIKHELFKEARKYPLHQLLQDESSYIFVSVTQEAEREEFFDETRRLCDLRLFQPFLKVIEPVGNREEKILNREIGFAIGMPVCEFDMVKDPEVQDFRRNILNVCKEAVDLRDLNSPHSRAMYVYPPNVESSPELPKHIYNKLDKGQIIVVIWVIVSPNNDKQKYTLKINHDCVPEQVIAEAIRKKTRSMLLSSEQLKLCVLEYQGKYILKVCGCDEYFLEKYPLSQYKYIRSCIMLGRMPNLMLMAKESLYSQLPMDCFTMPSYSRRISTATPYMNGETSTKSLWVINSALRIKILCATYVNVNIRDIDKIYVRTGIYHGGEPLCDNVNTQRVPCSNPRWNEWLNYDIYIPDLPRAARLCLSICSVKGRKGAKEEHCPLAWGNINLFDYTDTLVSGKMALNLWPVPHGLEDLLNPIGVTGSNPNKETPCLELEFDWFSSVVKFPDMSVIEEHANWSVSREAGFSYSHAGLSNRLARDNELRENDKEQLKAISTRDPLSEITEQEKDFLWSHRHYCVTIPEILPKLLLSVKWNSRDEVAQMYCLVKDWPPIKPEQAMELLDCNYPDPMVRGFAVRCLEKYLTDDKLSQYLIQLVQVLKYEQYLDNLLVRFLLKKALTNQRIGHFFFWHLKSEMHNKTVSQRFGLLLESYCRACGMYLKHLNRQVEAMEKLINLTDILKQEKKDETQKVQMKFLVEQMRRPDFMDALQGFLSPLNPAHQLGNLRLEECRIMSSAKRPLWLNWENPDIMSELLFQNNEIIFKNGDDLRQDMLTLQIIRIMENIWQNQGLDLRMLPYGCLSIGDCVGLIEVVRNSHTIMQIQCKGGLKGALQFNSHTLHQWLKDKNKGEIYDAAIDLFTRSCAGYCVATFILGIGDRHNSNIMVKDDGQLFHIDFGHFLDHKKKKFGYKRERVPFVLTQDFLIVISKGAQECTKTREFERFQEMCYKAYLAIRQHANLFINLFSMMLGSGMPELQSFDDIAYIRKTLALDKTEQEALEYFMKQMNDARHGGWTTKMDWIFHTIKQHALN
Chain of Phosphatidylinositol 4,5-bisphosphate 3-kinase catalytic subunit alpha isoform (Homo sapiens, UniProt P42336) (P42336 whole entry, canonical isoform): as the sequence (P42336 whole entry H1047R, canonical isoform) above, with R1047H counted along it
Chain of Phosphatidylinositol 4,5-bisphosphate 3-kinase catalytic subunit alpha isoform (Homo sapiens), P42336 [H1047R] (P42336 whole entry H1047R, canonical isoform): as the sequence (P42336 whole entry H1047R, canonical isoform) above

For the molecule `CO[C@H]1CCN(c2cn3c(n2)-c2ccc(N4CCC[C@H]4C(N)=O)cc2OCC3)C1=O`, in [1], the Papp A→B at 3 h, 10 µM stood at 2.6 ×10⁻⁶ cm/s. This molecule showed a logD in series [2] of 0.9. Moreover, the solubility kinetic in series [3] is 154 µM (≈ 63.4 µg/mL). Further, the Ratio Ki in the series filed under Homo sapiens [4] was found to be 4. Further, the Ki in series [5] was determined as 3.15 nM.
In series [2], `NC(=O)[C@@H]1CCCN1c1ccc2c(c1)OCCn1cc(N3CCCOCC3=O)nc1-2` displayed a logD of 0.7. Besides, in series [3], the solubility kinetic stood at 11 µM (≈ 4.53 µg/mL). For the same molecule, the Ratio Ki in the series listed under Homo sapiens [4] was determined as 15. The inhibition constant Ki in series [5] is 0.32 nM.
As for `CC[C@H](Nc1ccc2c(c1)OCCn1cc(N3C(=O)OC[C@H]3C(F)(F)F)nc1-2)C(N)=O`, in [1], the Papp A→B at 3 h, 10 µM worked out at 1.7 ×10⁻⁶ cm/s. In series [2], this molecule gave a logD of 1.4. Further, the Ratio EC50 in the series listed under Homo sapiens [6] came to 3.6. For the same molecule, the bioavailability in [7] came to 82%. For the same molecule, in the series listed under Homo sapiens [4], the Ratio Ki was found to be 146. Moreover, in series [8], the clearance worked out at 91 mL/min/kg. Besides, in [5], the Ki was found to be 0.157 nM. The molecule further yielded an EC50 in [9] of 56 nM.
Take `NC(=O)[C@@H]1CCCN1c1ccc2c(c1)OCCn1cc(N3CCCOC3=O)nc1-2`: in the series filed under Homo sapiens [4], the Ratio Ki turned out to be 9. For the same molecule, in [5], the Ki is 30.3 nM.
Regarding `NC(=O)[C@@H](Nc1ccc2c(c1)OCCn1cc(N3C(=O)OC[C@H]3C(F)(F)F)nc1-2)C1CCC1`, in the series listed under Homo sapiens [4], the Ratio Ki is 182. The Ki in series [5] amounted to 0.323 nM.
For `NC(=O)[C@@H]1CCCN1c1ccc2c(c1)OCCn1cc(N3C(=O)CC[C@H]3C(F)(F)F)nc1-2`, in [2], the logD came out at 1.6. Further, in series [5], the Ki is 0.8 nM.
`C[C@@H]1CN(c2cn3c(n2)-c2ccc(N4CCC[C@H]4C(N)=O)cc2OCC3)C(=O)O1`: in [2], the logD stood at 1.1. Moreover, the solubility kinetic in series [3] was 52 µM (≈ 20.7 µg/mL). Further, the Ratio Ki in the series listed under Homo sapiens [4] was determined as 15. The Ki in [5] came out at 11.5 nM.
Consider `CC(C)[C@@H]1COC(=O)N1c1cn2c(n1)-c1ccc(N3CCC[C@H]3C(N)=O)cc1OCC2`, for which the Papp A→B at 3 h, 10 µM in series [1] came out at 8.4 ×10⁻⁶ cm/s. In series [2], this molecule registered a logD of 1.8. Besides, in series [3], the solubility kinetic amounted to 131 µM (≈ 55.7 µg/mL). Further, the Ratio Ki in the series filed under Homo sapiens [4] stood at 22. Further, the Ki in series [5] amounted to 0.042 nM.
On to `C[C@H](Nc1ccc2c(c1)OCCn1cc(N3C(=O)OC[C@H]3C(F)(F)F)nc1-2)C(N)=O`, for which the Papp A→B at 3 h, 10 µM in series [1] was found to be 1 ×10⁻⁶ cm/s. Also, in [2], the logD stood at 0.9. Moreover, the Ratio EC50 in the series filed under Homo sapiens [6] stood at 2.7. Also, in series [7], the bioavailability turned out to be 65%. The Ratio Ki in the series listed under Homo sapiens [4] was 171. The clearance in [8] was determined as 57 mL/min/kg. Also, in [5], the Ki was determined as 0.095 nM. Further, the midpoint of the response in [9], the EC50, lay at 49 nM.
With `NC(=O)[C@@H]1CCCN1c1ccc2c(c1)OCCn1cc(N3CCn4nccc4C3=O)nc1-2`, the pH-dependent lipophilicity (logD) in series [2] amounted to 1.2. Also, in [3], the solubility kinetic stood at 2 µM (≈ 0.867 µg/mL). The Ratio Ki in the series listed under Homo sapiens [4] was 7. In addition, the inhibitory constant (Ki) in [5] amounted to 0.44 nM.
With `CC(C)n1nc(N)nc1-c1cn2c(n1)-c1ccc(O[C@@H](C)C(N)=O)cc1OCC2`, the Papp A→B at 3 h, 10 µM in series [1] stood at 0.5 ×10⁻⁶ cm/s. In series [2], this molecule had a logD of 1.1. The Ratio EC50 in the series filed under Homo sapiens [6] turned out to be 3.1. For the same molecule, in the series filed under Homo sapiens [4], the Ratio Ki came to 17. Besides, the Ki in series [5] worked out at 0.107 nM. The concentration for a half-maximal effect (EC50) in series [9] was 65 nM.
In the case of `CC(C)[C@H](Nc1ccc2c(c1)OCCn1cc(N3C(=O)OC[C@H]3C(F)(F)F)nc1-2)C(N)=O`, the Papp A→B at 3 h, 10 µM in series [1] is 1.9 ×10⁻⁶ cm/s. In series [2], the logD was found to be 1.7. In the series filed under Homo sapiens [6], the Ratio EC50 amounted to 2.3. In addition, the bioavailability in series [7] is 137%. Also, in the series filed under Homo sapiens [4], the Ratio Ki is 94. Further, in series [8], the clearance came to 61 mL/min/kg. The Ki in series [5] amounted to 0.692 nM. For the same molecule, the EC50 in series [9] was 157 nM.
Take `NC(=O)[C@@H]1CCCN1c1ccc2c(c1)OCCn1cc(N3CCOCC3=O)nc1-2`: the logD in series [2] stood at 0.7. In [3], the solubility kinetic came out at 65 µM (≈ 25.8 µg/mL). Besides, in the series listed under Homo sapiens [4], the Ratio Ki was determined as 8. In addition, the inhibition constant Ki in [5] was 2.52 nM.
Consider `C[C@H](Oc1ccc2c(c1)OCCn1cc(N3C(=O)OC[C@H]3C(F)F)nc1-2)C(N)=O`, for which the Ratio Ki in the series listed under Homo sapiens [4] is 52.
`NC(=O)[C@@H]1CCCN1c1ccc2c(c1)OCCn1cc(N3CCOCCC3=O)nc1-2` returned a logD in [2] of 0.7. In addition, in series [3], the solubility kinetic is 44 µM (≈ 18.1 µg/mL). Also, the Ratio Ki in the series filed under Homo sapiens [4] is 6. The inhibition constant Ki in series [5] was determined as 3.82 nM.
Take `CC1(C)C(=O)NC(=O)N1c1cn2c(n1)-c1ccc(N3CCC[C@H]3C(N)=O)cc1OCC2`: in series [1], the Papp A→B at 3 h, 10 µM was found to be 0.3 ×10⁻⁶ cm/s. The molecule further came in with a logD in series [2] of 0.7. In addition, the solubility kinetic in series [3] was found to be 114 µM (≈ 48.4 µg/mL). In addition, the Ratio Ki in the series listed under Homo sapiens [4] is 5. For the same molecule, the Ki in [5] was 0.681 nM.
As to `NC(=O)[C@@H](Nc1ccc2c(c1)OCCn1cc(N3C(=O)OC[C@H]3CF)nc1-2)C1CC1`, the Papp A→B at 3 h, 10 µM in [1] came out at 0.8 ×10⁻⁶ cm/s. Further, the log distribution coefficient (logD) in series [2] stood at 0.7. Also, in [8], the clearance was 63 mL/min/kg.
As for `C[C@H](Oc1ccc2c(c1)OCCn1cc(-c3ncnn3CC(F)(F)F)nc1-2)C(N)=O`, the logD in series [2] was found to be 2.2. The Ratio Ki in the series listed under Homo sapiens [4] is 14.
On to `CC(C)n1nc(N)nc1-c1cn2c(n1)-c1ccc(N3CCC[C@H]3C(N)=O)cc1OCC2`, for which, in series [1], the Papp A→B at 3 h, 10 µM is 0.3 ×10⁻⁶ cm/s. This molecule also registered a logD in [2] of 1.5. Besides, the solubility kinetic in series [3] amounted to 92 µM (≈ 38.9 µg/mL). In the series listed under Homo sapiens [4], the Ratio Ki was 8. In series [5], the Ki is 0.026 nM.
For the molecule `C[C@H](Oc1ccc2c(c1)OCCn1cc(-c3nc(CO)nn3CC(F)(F)F)nc1-2)C(N)=O`, the Papp A→B at 3 h, 10 µM in series [1] worked out at 1.5 ×10⁻⁶ cm/s. In addition, the logD in [2] came to 1.5. Also, the Ratio EC50 in the series listed under Homo sapiens [6] came out at 9.5. Besides, in series [7], the bioavailability worked out at 5%. Moreover, the Ratio Ki in the series listed under Homo sapiens [4] was 15. This molecule also had a clearance in series [8] of 50 mL/min/kg. In addition, the Ki in series [5] turned out to be 0.062 nM. The EC50 in series [9] was found to be 39 nM.
On to `NC(=O)[C@@H]1CCCN1c1ccc2c(c1)OCCn1cc(N3CCOC3=O)nc1-2`, for which the Papp A→B at 3 h, 10 µM in [1] amounted to 3.1 ×10⁻⁶ cm/s. The molecule further came in with a logD in series [2] of 0.6. For the same molecule, the solubility kinetic in series [3] was 200 µM (≈ 76.7 µg/mL). Besides, the Ratio Ki in the series filed under Homo sapiens [4] was 15. Also, the Ki in series [5] worked out at 5.75 nM.
Take `C[C@@H]1COC(=O)N1c1cn2c(n1)-c1ccc(N3CCC[C@H]3C(N)=O)cc1OCC2`: in series [1], the Papp A→B at 3 h, 10 µM is 2.1 ×10⁻⁶ cm/s. This molecule also displayed a logD in [2] of 0.7. The solubility kinetic in series [3] is 150 µM (≈ 59.6 µg/mL). Besides, the bioavailability in series [7] was 59%. Further, the Ratio Ki in the series filed under Homo sapiens [4] was determined as 24. Besides, in series [8], the clearance was 23 mL/min/kg.
In series [2], `COC[C@@H]1COC(=O)N1c1cn2c(n1)-c1ccc(N3CCC[C@H]3C(N)=O)cc1OCC2` showed a log distribution coefficient (logD) of 0.8. In [3], the solubility kinetic is 137 µM (≈ 58.6 µg/mL). Besides, in the series listed under Homo sapiens [4], the Ratio Ki is 8. In addition, the Ki in series [5] was 3.24 nM.
With `CO[C@@H]1CCN(c2ccc3c(c2)OCCn2cc(N4C(=O)OC[C@H]4C(F)(F)F)nc2-3)[C@@H]1C(N)=O`, the Ratio Ki in the series listed under Homo sapiens [4] amounted to 27. Moreover, in [5], the Ki is 0.097 nM.
Consider `NC(=O)[C@@H]1CCCN1c1ccc2c(c1)OCCn1cc(N3C(=O)OC[C@H]3C(F)(F)F)nc1-2`, for which the Papp A→B at 3 h, 10 µM in series [1] is 3.2 ×10⁻⁶ cm/s. Moreover, in [2], the pH-dependent lipophilicity (logD) stood at 1.4. In addition, the outcome in series [10] was Active. Moreover, in series [3], the solubility kinetic came to 130 µM (≈ 58.7 µg/mL). For the same molecule, in series [7], the bioavailability was determined as 57%. Besides, in the series listed under Homo sapiens [4], the Ratio Ki was found to be 15. Besides, the clearance in series [8] came out at 35 mL/min/kg. Further, the Ki in series [5] is 0.15 nM. In addition, a half-maximal response in [9] (EC50) required 40 nM.
Turning to `NC(=O)[C@@H]1COCCN1c1ccc2c(c1)OCCn1cc(N3C(=O)OC[C@H]3C(F)(F)F)nc1-2`, in the series filed under Homo sapiens [4], the Ratio Ki stood at 13. Besides, the Ki in [5] worked out at 2.97 nM.
For `NC(=O)[C@@H]1[C@H](F)CCN1c1ccc2c(c1)OCCn1cc(N3C(=O)OC[C@H]3C(F)(F)F)nc1-2` the same measures were 25 and 0.289 nM.
For `C[C@H]1CN(c2cn3c(n2)-c2ccc(N4CCC[C@H]4C(N)=O)cc2OCC3)C(=O)O1`, the logD in series [2] is 1.1. In series [3], the solubility kinetic was 20 µM (≈ 7.95 µg/mL). Further, the Ratio Ki in the series listed under Homo sapiens [4] was 6. The Ki in [5] was 6.49 nM.
